Test results taken from patent US10017459B2, “β-substituted β-amino acids and analogs as chemotherapeutic agents and uses thereof” (Quadriga Biosciences, Inc., priority 2015, dated 2018).

What was measured:
MCF7 = experiment: In vitro cytotoxicity, MCF7; assay type: cell-based; details: Homo sapiens, MCF7, read-out: IC50 (in vitro toxicity)
799E = experiment: In vitro cytotoxicity, 799E; assay type: cell-based; details: read-out: IC50 (in vitro toxicity)
L363 = experiment: cells; assay type: cell-based; details: Homo sapiens, L-363, read-out: IC50 (in vitro toxicity)
PC3 = experiment: Prostate cancer xenograft study, IP dosing; assay type: in vivo, mouse
Description: The efficacy of compounds provided by the present disclosure was evaluated on a prostate cancer xenograft model—PC3. PC3 tumors were implanted into mice and the study was initiated after the volume of the tumors was 130 mm^3. The animals were IP dosed once a week or 3 times per week for 3 weeks with either vehicle or 1.25 mg/kg, 2.5 mg/kg, or 5 mg/kg of compound (5). The tumor volume, body weight, white blood cell count, and granulocyte count were determined during the study and 10 days after the final dose was administered.

D283 = experiment: cells; assay type: cell-based; details: D283, read-out: IC50 (in vitro toxicity)
U266 = experiment: Orthotopic multiple myeloma study; details: mouse, in vivo
Description: The efficacy of compounds provided by the present disclosure was evaluated using an orthotopic luciferase human multiple myeloma model—U266. Human multiple myeloma cells were IV injected (1×10^6 cells) into NSG mice (female, 5-6 weeks-old, Jackson Labs). Treatment began when the BLI reached a log-phase growth, at about 12 to 14 days after injection. Nine mice were assigned to each arm of the study. The mice were dosed with vehicle (IP, once weekly for 3 weeks), bortezomid (BTZ, 0.8 mg/kg, IP twice weekly for 3 weeks), compound (5) (5 mg/kg, IV once weekly for 3 weeks), or compound (5) (10 mg/kg, IV once weekly for 3 weeks). The tumor volume was measured using bioluminescence imaging.

G55 = experiment: cells; assay type: cell-based; details: read-out: IC50 (in vitro toxicity)
[1] = system: LLCPK cells conditionally expressing hLAT1; experiment: cells; details: 0.5 h, read-out: LC50, concentration of test compound at which the percent surviving cells was 50%
PC3 tumors = experiment: Prostate cancer xenograft study, large tumor study; assay type: in vivo, mouse
Description: PC3 tumors were implanted into mice and the study was initiated after the volume of the tumors was 500 mm^3. Five (5) mg/kg compound (5) was administered by IP injection three times per week for two weeks. The tumor size, body weight, white cell count, and granulocyte count were measured.
In a counterpart study, mice in which the PC3 tumor size was at least 500 mm^3 were administered either 7.5 mg/kg or 10 mg/kg compound (5) three times a week for four weeks. In these studies, the mice were first administered a dose of either 2.5 mg/kg or 1.25 mg/kg, three times per week for three weeks. The tumor size, body weight, white cell count, and granulocyte count were measured. The tumor volume for the 7.5 mg/kg dosing regimen is resented in FIGS. 8A-8D, and for the 10 mg/kg dosing regimen in FIGS. 9A-9D.

AMO1 = experiment: cells; assay type: cell-based; details: Homo sapiens, AMO1, read-out: IC50 (in vitro toxicity)
LN229 = experiment: cells; assay type: cell-based; details: Homo sapiens, LN-229, read-out: IC50 (in vitro toxicity)
U251 MG = experiment: Orthotopic glioblastoma study (Example 84); assay type: in vivo, mouse; details: 5 mg/kg and 10 mg/kg IV once weekly for 4 weeks
Description: The efficacy of compounds provided by the present disclosure was evaluated using an orthotopic luciferase human glioblastoma model—U251 MG. Human glioblastoma cells were intracolonically injected (3×10^5 cells/3 μL) into athymic mice (female, 4-5 weeks-old, nu/un homozygous). Treatment began when the BLI reached a log-phase growth, at about 14 days after injection. Ten mice were assigned to each arm of the study. The mice were dosed with vehicle (IP, once weekly for 4 weeks), compound (5) (5 mg/kg, IV once weekly for 4 weeks), compound (5) (10 mg/kg, IV once weekly for 4 weeks), compound (40) (10 mg/kg, IV once weekly for 4 weeks), or compound (50) (20 mg/kg, IV single dose). The tumor volume was measured using bioluminescence imaging.

[2] = 5 mg/kg IP three times per week for two weeks
[3] = 7.5 mg/kg or 10 mg/kg dosing regimens

Cc1ccc(N(CCCl)CCCl)cc1C[C@H](N)CC(=O)O [Compound 5, (3S)-3-Amino-4-[5-[bis(2-chloroethyl)amino]-2-methyl-phenyl]butanoic Acid]
IC50 (MCF7): < 100 µM
IC50 (799E): < 100 µM
IC50 (L363): > 100 µM
tumor growth post-treatment (PC3; 1.25 mg/kg, 2.5 mg/kg, and 5 mg/kg regimens, IP): demonstrated a dose response
growth of the tumors (PC3; 5 mg/kg dosing regimen, IP once a week or 3 times per week for 3 weeks): nearly completely suppressed
animal body weights (PC3; all dosing regimens): remained the same increased
white blood cell count and granulocyte count (PC3; during and following treatment, all dosing regimens): remained within normal range
IC50 (D283): < 100 µM
multiple myeloma tumor growth (bioluminescence imaging) (U266): dose-dependent suppression of multiple myeloma tumor growth
IC50 (G55): < 100 µM
CC50 [1]: < 1 µM
body weight (PC3 tumors; [2]): decreased
cell counts (white cell, granulocyte) (PC3 tumors; [2]): remained within the normal range
body weights (PC3 tumors; [3]): remained about the same
cell counts (white cell, granulocyte) (PC3 tumors; [3]): remained within the normal range
tumor growth rate, large tumors (PC3 tumors; tumors 500 mm3, 5 mg/kg IP three times per week for two weeks): growth rate slowed for some large tumors
PC3 tumor growth, large tumors (PC3 tumors; tumors at least 500 mm3, 7.5 mg/kg or 10 mg/kg three times a week for four weeks): slowed in many of the animals and in some the size of the tumor decreased
IC50 (AMO1): > 100 µM
IC50 (LN229): < 100 µM
glioblastoma tumor growth (bioluminescence imaging) (U251 MG): dose-dependent suppression of glioblastoma tumor growth
